The text below walks through data of patent US11420962B2, “Indene derivatives useful in treating pain and inflammation” (TARO PHARMACEUTICALS INC., priority 2018, dated 2022).

For one data set, the system named is T cells. In words: T cell proliferation (anti-CD3/anti-CD28 dynabeads, CCK-8). The data set is classed as cell-based, mice. The note with it: Table 4, mouse T cells, 72 hours after dynabeads, read-out: Scoring (IC50, cell proliferation). The procedure: Spleens were obtained from six male, CD-1 outbred mice, approximately 8 weeks old. Cells were harvested under sterile conditions by forcing each spleen though a cell filter (pore size 100 μm diameter). A homogenous cell suspension was obtained by washing the cells in fresh medium and passing cells through a smaller cell filter (pore size 70 μm).
Untouched T cells were isolated using the Pan T cell isolation kit (Miltenyi Biotech). Briefly, cells were counted and incubated with the required volume of antibody cocktail for 5 minutes at 4° C. before addition of microbeads and incubation for 10 minutes at 4° C. Labeled cells were retained in a magnetic column while unlabeled cells (T cells) passed through the column and were retained for use in the assay.
Cell viability was assessed by Trypan Blue exclusion and found to be >99% prior to transfer to plates. Isolated T cells were seeded out in 96 well plates at a density of 50,000 cells per well and allowed to incubate for 60 minutes in a humidified cell culture (37° C., 5% CO2) incubator prior to compound treatment. The media used for this assay (TexMACS, Miltenyi Biotech) was previously optimized for proliferation of T cells in serum free conditions.
Representative compounds of the invention (i.e., test compounds) were prepared as 30 mM stocks in 100% DMSO. Test compounds were initially diluted in media to yield 3 mM stocks before an additional 1:10 dilution in media was performed to yield working stocks of 300 μM (1% DMSO). Subsequent dilutions were performed in media (supplemented with 1% DMSO). When added to the assay plates (1:10 dilution), these yielded final concentrations in the assay plates of in 0.1% DMSO. The reference compound, Cyclosporin A, was prepared in an identical manner as above.
Unstimulated and Stimulated Control wells received an identical volume of TexMACS media/1% DMSO at this time, resulting in a final concentration of 0.1% DMSO across the plate. Mouse anti-CD3/anti-CD28 dynabeads were prepared (following the manufacturers' instructions) in TexMACS media and added to appropriate wells to achieve a final concentration of 1 bead per cell. Unstimulated Control wells then received an identical volume of TexMACS. Plates were centrifuged 72 hours after addition of dynabeads, (300×g for 3 minutes) to pellet the cells and 60% of the supernatant was removed to a fresh plate for analysis by ELISA. After removal of 60% of the supernatant for subsequent ELISA, cell proliferation was assessed using the CCK-8 assay.
Average response by the standard compound, cyclosporin A, was 1 uM.

Data set [1] can be described thus: Metabolism by human liver microsomes. Type of data set: in vitro ADME. To be noted: Table 8; 10 µM, in the presence of NADPH, 1 mg/mL protein. The procedure: Representative compounds of the invention (i.e., test compounds) and the positive control, 7-ethoxycoumarin, were prepared as stock solutions at 10 mM in DMSO and eventually diluted to 10 μM in the test plate, with an appropriate amount of acetonitrle and tris HCl buffer. Final DMSO and acetonitrile concentrations were […] and 0.5% respectively. NADPH was prepared in tris HCl buffer to a stock of 10 mM. A frozen aliquot of live microsomes was retrieved from the freezer (−80° C.) and thawed by placing the tube on wet ice. After thawing, the tubes were gently mixed and the required amount, transferred to tris HCl buffer. Test compounds or positive control were pre-incubated, separately, for 10 minutes, with liver microsomes (1 mg/mL protein), at 37° C., in 100 mM Tris HCl at pH 7.5. After preincubation the reaction was started by adding 1 mM NADPH (pre-equilibrated to […]) and the reaction allowed to proceed for 60 minutes. At 60 minutes, a 50 μL aliquot was removed and quenched with 200 uL of acetonitrile containing a mixture of internal standards (Tolbutamide (500 ng/mL) and Telmistartan (500 ng/mL)) and vortexed then centrifuged at 4000 rmp for 10 minutes (Eppendorf 5810R). The supernatant was transferred to a 96 well plate for LC-MS/MS analysis.
An LC-MS/MS method was devised for the test compounds and the control, using a AB Sciex API 4000 system coupled to a NEXAR™ UHPLC (Shimadzu) system. Analytes were separated on a Phenomenex Kinetex C18 column (50×2.1 mm, 5 μm) using a gradient that was appropriate for each compound, at a flow rate of 1 ml/minute, utilizing a mobile phase of 0.1% formic acid in MILLI-Q™ water (A) and 0.1% formic acid in acetonitrile (B). The MS instrument was operated in positive mode (ESI+)/negative (ESI−). The multiple reaction monitoring (MRM) transition for test and control compounds was used for the LC-MS/MS analysis. MRM transitions for control compound 7-ethoxycoumarinm were Quadropole 1: 191.0, Quadropole 3: 163.0, dwell time: 75 msec, using curtain gas settings of 5 V, ion-spray voltage of 5500 V, temperature of 50° C. and gas settings for nebulizer and auxiliary set to 30 and 40 psi, respectively. The interface heater was kept on. Entrance potential and collision cell exit potential were varied to tune for a specific compound.
Using a suitable LC-MS/MS method, the percentage of drug remaining at 60 minutes ([…]) was assessed by comparing the average analyte to internal standard area ratio at 60 minutes to the average analyte to internal standard area ratio at 0 time control, as a percentage, from a 5 to 10 μL sample injection.
According to the above assay, the representative compounds listed in Table 8 below were active in the Human liver microsome assay at […] and the % of drug remaining after 60 minutes (PDR60), in the presence of NADPH, was assessed by LC-MS/MS. Average PDR60 for the standard compound, 7-ethoxycoumarin was <=65% in the presence of NADPH. Scoring for the test compounds, in the presence of NADPH, was as follows: “A” represents a PDR^60 of 81 to 100%, “B” represents a PDR^60 of 61 to 80%, “C” represents a PDR^60 of 31 to 60% and “D” represents a PDR^60 of 0 to 30%.

Another data set relates to Mice (male, C57Bl/6). Description: Formalin pain assay in mice. The note with it: Table 7; formalin 2.5%, left plantar. The data set is classed as in vivo. The procedure:
Mice (male, C57BL/6) were placed singly in a Perspex chamber for approximately 30 min on three successive days to acclimate and thereby reduce stress-induced behaviors. On the fourth day, the experimental animals received a 25 μl injection of 2.5% formalin beneath the left plantar skin using a 29-gauge syringe. […] The total time spent on flinches/licking/biting of the hind paw was recorded by visual observation for every 5 min period/interval for total observation duration of 60 min in two phases, the early phase (0-5 min) and the late phase (15-40 min). Observers were blinded to the treatment group allocation.
For test compounds, the % protection from 0-60 min was used to assess activity. Scoring for the test compounds was as follows: “A” represents a % protection of 81 to 100%, “B” represents a % protection of 61 to 80%, “C” represents a % protection of 31 to 60% and “D” represents a % protection of 0 to 30%.

The test system of the next data set is Rat DRG. Description: Rat dorsal root ganglion excitability response (EFS, Ca2+ transients). Type of data set: cell-based. To be noted: Rattus norvegicus; Table 3; electrical field stimulation, Ca5 indicator; read-out: Scoring (EC50, Rat DRG excitability). The procedure: Dorsal root ganglions (DRGs) were dissected from adult rats. The tissue was processed, and cells were seeded into call culture plates (48 center wells of one quadrant in 384-well plates) and cultured for 2 days prior to Electrical field stimulation (EFS). To visualize the neuronal excitability response, intracellular Ca^+2 transients were monitored using the Ca^+2 indicator, Ca5. Ca5 was added to the cultures 1 h prior to EFS. Representative test compounds of the invention (i.e., test compounds) and reference compound, tetracaine, were added in concentration-response format encompassing six concentrations, performed in duplicate. The highest concentration tested was typically 30 μM with 1 in 3 dilutions generating the subsequent concentrations.
Effects on DRG excitability by the test compounds and standard were evaluated using four EFS protocols as disclosed in Table 2.
Experimental results were performed using two separate sets of plates using separate test compound and standard dilutions, to provide n=2. In the first set of experiments, compounds were added 24 h prior to EFS to increase the possibility to also detect more long-term compound effects. In the second set of experiments the compounds were added directly prior to EFS. Excitability response to EFS was analyzed as the average fluorescence ratio (peak/baseline) change per well. All plates were evaluated using high content imaging equipment post-EFS, imaging the Ca5 background staining to detect any possible compound-related toxic effects.
Average response by the standard compound, tetracaine, was 4.05 μM.

A word on the EC50: it is the concentration at which the effect is half-maximal.

As for `C=C1CC[C@H]2[C@H](CN)[C@@H]([C@@]3(C)Cc4c(C(F)(F)F)n[nH]c4C[C@@H]3CO)CC[C@]12C` [Ia-31, ((5R,6S)-5-((3aS,4R,5S,7aS)-4-(aminomethyl)-7a-methyl-1-methyleneoctahydro-1H-inden-5-yl)-5-methyl-3-(trifluoromethyl)-4,5,6,7-tetrahydro-1H-indazol-6-yl)methanol], in the data set on T cells, the IC50 lay within 2 to 6 µM.
As for `C[C@@]12CCC[C@H]1[C@H](CN)[C@@H]([C@@]1(C)Cc3cn[nH]c3C[C@@H]1CO)CC2` [Ia-33, ((5R,6S)-5-((3aS,4S,5S,7aS)-4-(aminomethyl)-7a-methyloctahydro-1H-inden-5-yl)-5-methyl-4,5,6,7-tetrahydro-1H-indazol-6-yl)methanol], the “Scoring (% of drug remaining after 60 minutes, PDR60)” value in data set [1] is given as “B (a PDR^60 of 61 to 80%)”. For the same molecule, the “Scoring (% protection from 0-60 min)” value in the data set on Mice (male, C57Bl/6) is listed as “C (a % protection of 31 to 60%)”. In addition, the EC50 in the data set with Rat DRG was in the range of 6 to 15 µM.
The like results for `C=C1CC[C@H]2[C@H](CN)[C@@H]([C@@]3(C)Cc4conc4C[C@@H]3CO)CC[C@]12C` [Ig-1, ((5R,6S)-5-((3aS,4R,5S,7aS)-4-(aminomethyl)-7a-methyl-1-methyleneoctahydro-1H-inden-5-yl)-5-methyl-4,5,6,7-tetrahydrobenzo[c]isoxazol-6-yl)methanol] were, in that order, “A (a PDR^60 of 81 to 100%)”, “C (a % protection of 31 to 60%)” and 6 to 15 µM.
Consider `C[C@@]12CCC[C@H]1[C@H](CO)[C@@H]([C@@]1(C)Cc3cn[nH]c3C[C@@H]1CO)CC2` [Ia-27, ((3aS,4S,5S,7aS)-5-((5R,6S)-6-(hydroxymethyl)-5-methyl-4,5,6,7-tetrahydro-1H-indazol-5-yl)-7a-methyloctahydro-1H-inden-4-yl)methanol], for which the “Scoring (% protection from 0-60 min)” value in the data set with Mice (male, C57Bl/6) is on record as “D (a % protection of 0 to 30%)”. Further, in the data set on Rat DRG, the half-maximal effective concentration (EC50) lay within 6 to 15 µM.
With `CC[C@H]1CC[C@H]2[C@H](CN)[C@@H]([C@@]3(C)Cc4cn[nH]c4C[C@@H]3CO)CC[C@]12C` [Ia-29, ((5R,6S)-5-((1S,3aS,4S,5S,7aR)-4-(aminomethyl)-1-ethyl-7a-methyloctahydro-1H-inden-5-yl)-5-methyl-4,5,6,7-tetrahydro-1H-indazol-6-yl)methanol], in data set [1], the “Scoring (% of drug remaining after 60 minutes, PDR60)” value was “C (a PDR^60 of 31 to 60%)”. Further, in the data set on Mice (male, C57Bl/6), the “Scoring (% protection from 0-60 min)” value is “D (a % protection of 0 to 30%)”. Further, in the data set on Rat DRG, the 50% effective concentration (EC50) lay within 6 to 15 µM.
For `C=C1CC[C@H]2[C@H](CN)[C@@H]([C@@]3(C)Cc4cnn(-c5ccccc5)c4C[C@@H]3CO)CC[C@]12C` [Ia-8, ((5R,6S)-5-((3aS,4R,5S,7aS)-4-(aminomethyl)-7a-methyl-1-methyleneoctahydro-1H-inden-5-yl)-5-methyl-1-phenyl-4,5,6,7-tetrahydro-1H-indazol-6-yl)methanol] the same measures were “D (a PDR^60 of 0 to 30%)”, “D (a % protection of 0 to 30%)” and 2 to 6 µM.
For `C=C1[C@@H](O)C[C@H]2[C@H](CO)[C@@H]([C@@]3(C)Cc4cn[nH]c4C[C@@H]3CO)CC[C@]12C` [Ia-66, (2S,3aS,4R,5S,7aS)-4-(hydroxymethyl)-5-((5R,6S)-6-(hydroxymethyl)-5-methyl-4,5,6,7-tetrahydro-1H-indazol-5-yl)-7a-methyl-1-methyleneoctahydro-1H-inden-2-ol] the same measures were “A (a PDR^60 of 81 to 100%)”, “D (a % protection of 0 to 30%)” and over 15 µM.
For `C[C@H]1CC[C@H]2[C@H](CN)[C@@H]([C@@]3(C)Cc4cn[nH]c4C[C@@H]3CO)CC[C@]12C` [Ia-34, ((5R,6S)-5-((1S,3aS,4S,5S,7aR)-4-(aminomethyl)-1,7a-dimethyloctahydro-1H-inden-5-yl)-5-methyl-4,5,6,7-tetrahydro-1H-indazol-6-yl)methanol] the same measures were “B (a PDR^60 of 61 to 80%)”, “C (a % protection of 31 to 60%)” and 6 to 15 µM.
`C=C1CC[C@H]2[C@H](CO)[C@@H]([C@@]3(C)Cc4cn[nH]c4C[C@@H]3CN3CCOCC3)CC[C@]12C` [Ia-72, ((3aS,4R,5S,7aS)-7a-methyl-5-((5R,6S)-5-methyl-6-(morpholinomethyl)-4,5,6,7-tetrahydro-1H-indazol-5-yl)-1-methyleneoctahydro-1H-inden-4-yl)methanol]: the “Scoring (% of drug remaining after 60 minutes, PDR60)” value in data set [1] is recorded as “D (a PDR^60 of 0 to 30%)”. In the data set with Rat DRG, the EC50 is over 15 µM.
